Source: publication PMC4131897 (Biochemistry, 2014)

Target: T1, BjPutA (proline utilization A) (Bradyrhizobium diazoefficiens, UniProt Q89E26, D779W)
T1 sequence (Q89E26 1-999 D779W): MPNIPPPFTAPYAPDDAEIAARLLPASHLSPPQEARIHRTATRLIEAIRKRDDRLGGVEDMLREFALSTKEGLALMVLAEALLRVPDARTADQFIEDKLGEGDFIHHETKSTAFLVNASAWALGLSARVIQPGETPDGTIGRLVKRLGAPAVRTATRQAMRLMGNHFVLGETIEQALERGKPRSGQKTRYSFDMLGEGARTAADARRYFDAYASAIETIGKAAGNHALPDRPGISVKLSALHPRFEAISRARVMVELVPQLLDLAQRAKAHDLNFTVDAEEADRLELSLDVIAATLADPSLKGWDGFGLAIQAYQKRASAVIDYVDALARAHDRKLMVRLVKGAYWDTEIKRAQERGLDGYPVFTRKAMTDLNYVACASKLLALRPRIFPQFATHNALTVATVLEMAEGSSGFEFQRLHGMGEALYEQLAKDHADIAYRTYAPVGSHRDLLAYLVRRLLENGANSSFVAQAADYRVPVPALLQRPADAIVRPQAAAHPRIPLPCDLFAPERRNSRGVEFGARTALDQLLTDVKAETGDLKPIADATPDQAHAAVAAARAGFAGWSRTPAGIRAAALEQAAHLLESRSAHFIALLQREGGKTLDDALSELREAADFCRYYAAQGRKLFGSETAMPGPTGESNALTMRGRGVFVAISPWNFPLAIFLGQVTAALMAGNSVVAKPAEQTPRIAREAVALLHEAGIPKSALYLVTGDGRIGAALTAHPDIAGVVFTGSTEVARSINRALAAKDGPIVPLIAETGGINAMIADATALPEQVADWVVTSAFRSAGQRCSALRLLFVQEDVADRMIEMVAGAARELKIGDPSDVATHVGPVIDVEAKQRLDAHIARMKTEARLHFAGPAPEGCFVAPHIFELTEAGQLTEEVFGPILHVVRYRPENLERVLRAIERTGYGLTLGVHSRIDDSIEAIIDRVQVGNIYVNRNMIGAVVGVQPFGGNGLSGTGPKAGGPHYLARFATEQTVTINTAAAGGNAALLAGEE
Assay: intrinsic tryptophan fluorescence quenching
Assay type: binding

Kd: 780 ± 50 nM
Structure (SMILES): NC(=O)c1ccc[n+]([C@@H]2O[C@H](COP(=O)(O)OP(=O)(O)OC[C@H]3O[C@@H](n4cnc5c(N)ncnc54)[C@H](O)[C@@H]3O)[C@@H](O)[C@H]2O)c1 [NAD^+]
